Assays:
[1] = biological target: ARAF (Homo sapiens (Human), UniProt P10398); experiment: ARAF kinase activity assay (AlphaLISA p-MEK 1/2 detection); format: biochemical
Method: Compound preparation: solid samples of each substances in 1 dram vials were suspended in DMSO (Fisher Scientific) at a stock concentration of 20 mM. Stocks were kept at −20° C. and protected from light. If solubility of the compound at 20 mM appeared to be an issue, the initial concentration of the DMSO stock was changed to 10 mM or 5 mM.
In vitro enzymatic reactions were used for evaluating compounds intrinsic activity against BRAF, CRAF and ARAF. For BRAF and CRAF, 0.375 nM of purified GST-tagged kinases (cat #B4062-10 UG and cat #R1656-10 UG respectively from Millipore Sigma) were incubated with 75 nM of kinase-dead MEK1 substrate (cat #40075; BPS Bioscience) in the presence of 10 μM of Ultrapure ATP (cat #V9102; Promega; part V915A) with and without the test compound in a buffer containing 50 mM HEPES pH 7.5, 10 mM MgCl2, 1 mM EDTA, 0.01% Brij-35 and 2 mM DTT. Separate reactions were performed with the MEK1 substrate and ATP as a blank control. ARAF, kinase reactions were rigorously the same with the exception that kinase concentration was raised to 3.75 nM (cat #1768-0000-1; Reaction Biology).
For compound treatment, 5 μL/well of test substance solution are placed in a 384-well proxyplate (Perkin Elmer) and mixed with 2× concentrated kinase reactions. The dilution series is selected so that nine concentrations cover a range from 100 nM to 0.01 nM. […] The final concentration of DMSO in the assay is set at 0.05%.
ARAF kinase reactions were carried out for a total of 2 hours at 30° C. and then stopped by addition of EDTA at a final concentration of 40 mM. Reactions were then detected using the AlphaLISA® SureFire® Ultra™ p-MEK 1/2 (Ser218/222) (PerkinElmer) kit. Reactions were performed with 5 μL of kinase reaction according to the manufacturer's specifications in 384-well proxyplates (Perkin Elmer) followed by overnight incubation of the AlphaLISA® reactions at room temperature in a humidified chamber. After completion of the detection reactions, the signals were recorded on a Synergy Neo2 plate reader (Biotek) equipped with AlphaLISA® filters. The effect of each compound dilution on the pMEK signal generated by ARAF reactions was expressed in % inhibition and calculated as follows. An internal 100% inhibition control (average of luminescence in kinase reactions comprising kinase dead MEK1 substrate alone) was included in each plate to measure of pMEK background and was subtracted from each data point. The average of DMSO (vehicle) controls (set as 0% inhibition) was also established and used to calculate % inhibition: % inhibition=100*(1−((pMEK signalcompound)/(pMEK signalDMSO)))
IC50 values were obtained by plotting the kinase inhibition values and fitting the dose-activity curves using a log(agonist) versus response-variable slope (four parameters) function using either GraphPadPrism (V7.0) or Dotmatics Screening Ultra platform. Standards included in the ARAF kinase assay were Belvarafenib (MedChem Express cat #HY-109080; CAS #1446113-23-0), LXH254 (MedChem Express cat #HY-112089; CAS #1800398-38-2) and BGB283 (cat #HY-18957; CAS #1446090-79-4).

[2] = test system: pERK in HCT-116 cells (KRAS G13D); experiment: Phospho-ERK inhibition (AlphaLISA SureFire Ultra p-ERK 1/2), HCT116; format: cell-based, human
Summary of the method: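 Cells plated in RPMI-1640 with 5% FBS, kept overnight at 37° C, then treated 1 h with ten-point dilutions (top usually 10 μM; 0.5% DMSO). Lysate p-ERK1/2 (Thr202/Tyr204) read by AlphaLISA SureFire Ultra. % inhibition set against DMSO after subtracting the trametinib background; IC50 from four-parameter fit.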

[3] = test system: pERK and pMEK in RAS-mutant HCT-116 cells; experiment: Immunoblot analysis of pERK and pMEK in HCT-116 cells; format: cell-based, human; settings: 1 h treatment, FIG. 2
Method: For immunoblotting analysis, 500,000 HCT-116 cells were plated in 1 mL of complete RPMI-1640 growth medium in 24-well flat-bottomed transparent dishes (Costar). Cells were maintained overnight at 37° C. under 5% CO2 before treatment with compounds' dilution series for one hour.
Cells were then washed once in PBS and lized in 250 μL of Igepal Lysis Buffer (50 mM Tris-HCl pH 7.5, 150 mM NaCl, 1% Igepal-CA630, 1 mM EDTA, 10% Glycerol) supplemented with Leupeptin, Aprotinin, PMSF, phosphatase inhibitor cocktail (Sigma) and Na3VO4 at 4° C. for 15 minutes with gentle rocking. Cell extracts were then cleared by centrifugation at 20,000 g at 4° C. for 10 minutes. Cleared lysates were then transferred on ice in fresh tubes and then boiled in sample loading buffer (100 mM Tris-HCl pH 6.8, 4% SDS, 0.2% bromophenol blue, 20% glycerol, 200 mM p-mercaptoethanol) for 5 minutes prior to fractionation by SDS-PAGE and transfer to nitrocellulose membranes (PALL). […]

Chain of ARAF (P10398 whole entry): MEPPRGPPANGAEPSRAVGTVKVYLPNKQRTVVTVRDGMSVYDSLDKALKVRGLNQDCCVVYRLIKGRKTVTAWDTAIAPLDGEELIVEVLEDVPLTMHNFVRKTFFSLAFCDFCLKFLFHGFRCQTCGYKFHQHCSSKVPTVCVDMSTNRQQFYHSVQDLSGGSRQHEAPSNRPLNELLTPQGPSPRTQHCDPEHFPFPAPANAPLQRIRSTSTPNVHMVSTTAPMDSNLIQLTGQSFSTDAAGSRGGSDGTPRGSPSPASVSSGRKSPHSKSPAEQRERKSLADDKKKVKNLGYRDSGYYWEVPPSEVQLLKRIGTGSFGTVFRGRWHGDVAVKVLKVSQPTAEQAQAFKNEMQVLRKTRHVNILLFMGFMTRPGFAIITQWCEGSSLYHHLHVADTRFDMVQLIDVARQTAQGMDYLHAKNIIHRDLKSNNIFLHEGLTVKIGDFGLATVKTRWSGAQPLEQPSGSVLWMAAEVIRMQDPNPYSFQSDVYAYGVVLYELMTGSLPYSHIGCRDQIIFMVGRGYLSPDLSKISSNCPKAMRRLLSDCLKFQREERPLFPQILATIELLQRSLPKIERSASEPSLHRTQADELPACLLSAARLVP

IC50 [1] | IC50 ([2]; HCT116 cells, class symbol) | YMIN of pERK IC50 dose response curve (paradoxical induction of pERK signaling) ([2]; RAS-mutant HCT116 cells, FIG. 1) | SMILES | paradoxical induction of pERK or pMEK signaling (immunoblot) [3]
> 10 nM | – | – | O=C1CCc2c(Oc3ccc4c(c3)[C@@H]3[C@H](O4)[C@H]3c3nc4ccc(C(F)(F)F)cc4[nH]3)ccnc2N1 [BGB283, reference compound] | –
1 to 10 nM | 1 to 10 µM | – | Cc1nc(N)ccc1S(=O)(=O)Nc1ccc(F)c(Nc2ncnc3ccc(-n4cnc5c(N)cccc54)nc23)c1F [Example 353] | –
> 10 nM | – | – | Cc1ccc(NC(=O)c2ccnc(C(F)(F)F)c2)cc1-c1cc(OCCO)nc(N2CCOCC2)c1 [LXH254, reference compound] | –
– | – | ~−600% | CCCS(=O)(=O)Nc1ccc(F)c(C(=O)c2c[nH]c3ncc(Cl)cc23)c1F [PLX4720, reference compound] | induces the pathway
